Measured values reported in ChEMBL document CHEMBL1201862, “PubChem BioAssay data set” (2004).
The source made the active and inactive calls.

How the values were obtained:
[1] = cells
[2] = HEp-2 cell cytotoxicity, dose response, cytotoxicity control for RSV inhibitor project, HTS (AID 2410); assay type: functional; conditions: human respiratory syncytial virus
[3] = inhibitors of PGC1a acetylation in cells, dose response, cell-based, cherry-picked samples (AID 720514); assay type: functional;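 further: potency may reflect raised or lowered acetylation signal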
[4] = molecular target: T1, Replicative DNA helicase DnaB (Mycobacterium tuberculosis, UniProt P9WMR3); experiment: DnaB intein splicing inhibitors, dose response, biochemical, cell-free fluorescence (AID 449749); assay type: functional
T1 sequence (P9WMR3 whole entry): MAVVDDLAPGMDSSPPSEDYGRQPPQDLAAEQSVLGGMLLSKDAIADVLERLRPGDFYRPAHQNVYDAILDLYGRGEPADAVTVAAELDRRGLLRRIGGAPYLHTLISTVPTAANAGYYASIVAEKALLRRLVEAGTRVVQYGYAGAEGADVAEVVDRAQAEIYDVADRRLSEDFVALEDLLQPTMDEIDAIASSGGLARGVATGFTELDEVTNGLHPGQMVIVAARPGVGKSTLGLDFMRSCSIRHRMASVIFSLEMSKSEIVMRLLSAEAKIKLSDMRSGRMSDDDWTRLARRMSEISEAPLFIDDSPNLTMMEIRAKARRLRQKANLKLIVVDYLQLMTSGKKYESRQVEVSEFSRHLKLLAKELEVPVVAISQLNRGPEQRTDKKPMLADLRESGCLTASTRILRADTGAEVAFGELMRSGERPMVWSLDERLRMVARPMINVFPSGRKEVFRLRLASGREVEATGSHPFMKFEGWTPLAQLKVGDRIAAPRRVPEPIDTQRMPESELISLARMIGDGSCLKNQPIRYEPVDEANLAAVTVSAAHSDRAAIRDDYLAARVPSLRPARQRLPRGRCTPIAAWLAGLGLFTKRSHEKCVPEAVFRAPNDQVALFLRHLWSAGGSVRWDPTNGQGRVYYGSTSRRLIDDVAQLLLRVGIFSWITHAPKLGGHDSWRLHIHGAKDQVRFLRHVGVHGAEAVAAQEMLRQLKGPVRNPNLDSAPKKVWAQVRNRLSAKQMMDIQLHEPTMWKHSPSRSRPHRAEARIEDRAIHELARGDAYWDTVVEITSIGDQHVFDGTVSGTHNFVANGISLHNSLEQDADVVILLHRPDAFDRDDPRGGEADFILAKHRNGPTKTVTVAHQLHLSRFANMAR

[5] = control 3'UTR Renilla luciferase suppression, dose response, counter-screen for Shn3 inhibitor project, cell-based, Clone20-Shn3RL, cherry-picked (AID 624133); assay type: functional
[6] = molecular target: T2, Protein RecA (Mycobacterium tuberculosis, UniProt P9WHJ3); experiment: Fluorescence Cell-Free Homogeneous Dose Retest to Identify Inhibitors of RecA-Intein Splicing Activity. [Related pubchem assays (depositor defined):AID2097, AID2223, AID489010, AID492950]; assay type: functional
T2 sequence (P9WHJ3 whole entry): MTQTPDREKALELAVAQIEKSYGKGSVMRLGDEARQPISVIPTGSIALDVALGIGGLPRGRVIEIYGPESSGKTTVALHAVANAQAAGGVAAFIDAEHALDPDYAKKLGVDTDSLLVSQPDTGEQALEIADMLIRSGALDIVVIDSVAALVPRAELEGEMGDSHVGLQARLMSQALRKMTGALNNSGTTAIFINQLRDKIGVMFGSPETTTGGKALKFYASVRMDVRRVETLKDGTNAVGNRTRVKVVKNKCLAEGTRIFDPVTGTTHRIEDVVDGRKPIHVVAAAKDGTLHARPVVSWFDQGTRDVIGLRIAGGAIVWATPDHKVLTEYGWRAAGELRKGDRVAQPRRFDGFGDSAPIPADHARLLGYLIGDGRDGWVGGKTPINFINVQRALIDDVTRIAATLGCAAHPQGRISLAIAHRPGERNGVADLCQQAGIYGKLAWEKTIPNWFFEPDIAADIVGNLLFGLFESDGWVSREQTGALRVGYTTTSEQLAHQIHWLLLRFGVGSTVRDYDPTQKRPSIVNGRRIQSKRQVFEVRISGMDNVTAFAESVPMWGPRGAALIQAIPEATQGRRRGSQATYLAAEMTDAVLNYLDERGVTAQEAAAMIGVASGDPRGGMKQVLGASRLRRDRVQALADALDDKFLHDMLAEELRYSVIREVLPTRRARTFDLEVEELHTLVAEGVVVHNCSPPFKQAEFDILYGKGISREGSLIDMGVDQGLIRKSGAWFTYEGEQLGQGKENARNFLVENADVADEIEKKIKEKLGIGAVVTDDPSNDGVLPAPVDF

[7] = HepG2 cell cytotoxicity, dose response, cytotoxicity control for Shn3 inhibitor project, CellTiter-Glo, cherry-picked (AID 624134); assay type: functional, cell-based
[8] = molecular target: T3, Heat shock factor protein 1 (Mus musculus, UniProt P38532); experiment: HSF1 potentiators in luciferase reporter cells, confirmation, cell-based, NIH3T3, luminescence, dose retest (AID 435004); assay type: functional;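 further: stress induced by proteasome inhibitor MG132 added 30 min after compound; luciferase reporter driven by HSF1 response element in NIH3T3 cells; actives raise luminescence as potentiators of the MG132 stress response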
T3 sequence (P38532 whole entry): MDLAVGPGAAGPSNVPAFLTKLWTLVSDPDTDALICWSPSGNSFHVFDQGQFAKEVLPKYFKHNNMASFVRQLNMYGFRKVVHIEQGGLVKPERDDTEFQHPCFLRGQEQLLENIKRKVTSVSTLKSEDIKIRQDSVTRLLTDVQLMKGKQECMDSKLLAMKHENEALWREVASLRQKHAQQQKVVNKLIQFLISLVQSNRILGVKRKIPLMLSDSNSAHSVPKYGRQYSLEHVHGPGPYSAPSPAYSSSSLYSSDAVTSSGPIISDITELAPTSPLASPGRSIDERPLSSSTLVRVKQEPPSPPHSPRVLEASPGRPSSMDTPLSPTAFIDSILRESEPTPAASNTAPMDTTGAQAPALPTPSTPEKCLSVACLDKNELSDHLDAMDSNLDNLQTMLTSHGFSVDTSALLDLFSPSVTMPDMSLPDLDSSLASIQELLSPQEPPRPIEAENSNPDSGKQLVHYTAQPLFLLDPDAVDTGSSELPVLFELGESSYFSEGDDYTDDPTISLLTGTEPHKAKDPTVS

[9] = molecular target: Heat shock protein HSP 90-alpha (Homo sapiens, UniProt P07900); assay type: functional, organism-based
[10] = Shn3 3'UTR reporter inhibitors, dose response, cell-based, Clone20 osteoblasts, firefly luciferase, cherry-picked (AID 624132); assay type: functional;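 further: firefly luciferase luminescence from reporter carrying the Shn3 3'UTR in osteoblasts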
[11] = molecular target: Paired box protein Pax-8 (Homo sapiens, UniProt Q06710); experiment: inhibitors of PAX8-driven TPO luciferase reporter, dose response, RMG-I cells, cherry-pick (AID 687027); assay type: functional, cell-based;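 further: luciferase reporter driven by Pax8 target thyroperoxidase promoter measured by SteadyGlo luminescence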
Paired box protein Pax-8, sequence (Q06710 whole entry): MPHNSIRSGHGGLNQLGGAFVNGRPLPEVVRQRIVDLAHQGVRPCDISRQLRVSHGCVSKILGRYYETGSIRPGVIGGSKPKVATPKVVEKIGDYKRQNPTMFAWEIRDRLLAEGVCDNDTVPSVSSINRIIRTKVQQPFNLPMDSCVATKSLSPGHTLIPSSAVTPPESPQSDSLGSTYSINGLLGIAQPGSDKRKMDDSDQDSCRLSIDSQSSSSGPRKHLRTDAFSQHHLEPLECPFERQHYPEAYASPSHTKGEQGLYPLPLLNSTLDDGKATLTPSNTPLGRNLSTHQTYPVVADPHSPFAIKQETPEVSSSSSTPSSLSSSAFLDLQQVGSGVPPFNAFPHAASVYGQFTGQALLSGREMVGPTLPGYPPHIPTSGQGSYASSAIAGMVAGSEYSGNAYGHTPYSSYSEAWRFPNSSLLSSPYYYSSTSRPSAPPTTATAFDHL

[12] = intracellular Trypanosoma cruzi inhibitors in host cells – cell-based, plate reader, cherry-pick samples, set 3, dose response (AID 651818); assay type: functional;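 further: compounds incubated with infected cells for about four days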
[13] = inhibitors of HIV Env-driven cell fusion, dose response, cherry-pick (AID 652057); assay type: functional, cell-based
[14] = inhibitors of clade B AD8 Env fusion, dose response, cell-based, cherry-pick (AID 652062); assay type: functional;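 further: luciferase signal from cell-cell fusion driven by HIV-1 clade B AD8 Env; potency is for inhibitors of fusion seen as a drop in luminescence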

CC(C)[C@H](NC(=O)N1CCn2c1nc1ccccc12)C(=O)NCc1ccccc1Cl
IC50 [1]: 35.8 µM (active) | CC50 [2]: 46.3 µM (active)

Cc1cc(OCC(=O)NNC(=O)c2cnccn2)cc(C)c1Cl
AC50 [3]: 29.6 µM (active)

Cc1ccc(-n2c(=O)c3sccc3n(Cc3cc(=O)n4ccccc4n3)c2=O)cc1F
IC50 [1]: 9.86 µM (active)

CC1=NN(c2cccc([N+](=O)[O-])c2)C(=O)C1
AC50 [4]: 14.4 µM (active) | AC50 [5]: 29.5 µM (active) | EC50 [6]: 19.5 µM (active) | AC50 [7]: > 70 µM (inactive)

COc1cc(/C=C2\SC(=S)N(Nc3ncc(C(F)(F)F)cc3Cl)C2=O)ccc1O
EC50 [8]: 36 µM (active) | AC50 [9]: 12.4 µM (active)

COc1ccc([C@H]2CC(=O)C=C(c3ccc(F)cc3OCc3ccccc3)C2)cc1OC
AC50 [10]: 7.36 µM (active) | AC50 [5]: 16.1 µM (active) | AC50 [7]: > 70 µM (inactive)

CC(=O)c1cccc(-c2csc3ncnc(Sc4nnnn4C)c23)c1
AC50 [11]: 3.1 µM (active) | AC50 [10]: 4.72 µM (active) | AC50 [5]: 15.5 µM (active) | AC50 [7]: 53.4 µM (active)

Cc1cc(C)c(NC(=O)c2ccc(S(=O)(=O)N(C)C)cc2)c(C)n1
AC50 [3]: 29.4 µM (active)

COCCOc1ccc(C(F)(F)F)cc1NC(=O)CN1C(=O)NC2(CCCc3ccccc32)C1=O (configuration not stated)
AC50 [3]: 33.9 µM (active)

C[C@@H]1CCCCO[C@@H](CN(C)Cc2ccc(C(F)(F)F)cc2)[C@@H](C)CN([C@H](C)CO)C(=O)c2cc(NC(=O)NC3CCCCC3)ccc2O1
AC50 [12]: 6.76 µM (active)

C[C@H](CO)N1C[C@H](C)[C@@H](CN(C)Cc2ccc(-c3ccccc3)cc2)Oc2ccc(NS(=O)(=O)c3ccccc3)cc2C1=O
AC50 [12]: 4.49 µM (active)

C[C@H]1CN([C@@H](C)CO)C(=O)c2cccc(NC(=O)c3nc4ccccc4s3)c2O[C@@H]1CN(C)Cc1ccc(-c2ccccc2)cc1
AC50 [12]: 1.22 µM (active)

COc1ccc(NC(=O)N(C)C[C@H]2Oc3c(NS(=O)(=O)c4ccc(F)cc4)cccc3C(=O)N([C@@H](C)CO)C[C@H]2C)cc1
AC50 [12]: 4.14 µM (active)

C[C@@H]1CCCCO[C@H](CN(C)Cc2ccc(C(F)(F)F)cc2)[C@@H](C)CN([C@H](C)CO)C(=O)c2cc(NC(=O)Nc3cccc4ccccc34)ccc2O1
AC50 [12]: 2.91 µM (active)

C[C@H](C(=O)N(C)C[C@@H]1OCc2ccccc2-c2ccccc2C(=O)N([C@H](C)CO)C[C@@H]1C)c1ccccc1
AC50 [13]: < 0.26 µM (active) | AC50 [14]: < 0.26 µM (active)

C[C@@H]1CN([C@@H](C)CO)S(=O)(=O)c2ccc(-c3ccc(F)cc3)cc2O[C@H]1CN(C)C(=O)C1CCCCC1
AC50 [3]: 17.1 µM (active)
